From US7817840B2, “Predicting hepatotoxicity using cell based assays” (Cytokinetics, Inc., priority 2003, dated 2010)
pIC50: −log10 of the molar value.

Key:
[1] = system: human hepatoma cell line HepG2; conditions: HepG2 cells incubated with compound; previous studies; cited from earlier work
Primary rat hepatocytes = test: MTS/PMS cell viability (hepatotoxicity) assay, 24-hour exposure; assay type: cell-based; conditions: Hepatocyte, 9-point dilution series, read-out: IC50 (cell viability, formazan absorbance as percent of untreated control)
Protocol: To measure the viability of hepatocytes after plating, an aqueous CellTiter Non-radioactive Cell Proliferation Assay may be used (Promega, Madison, Wis.). This assay can also be used to measure the hepatoxicity of a test compound.
In one example of the assay, hepatoxicity is determined by assaying rat hepatocytes for viability following a 24-hour exposure to a 9-point dilution series of compound (to allow assessment of dose). Cell viability is determined by measuring the absorbance of formazon, a product formed by the bioreduction of MTS/PMS, commercially available reagents. […]
With reference to FIG. 6, in a sterile 2 mL v-bottom assay block, dispense 2.5 μl of compound at 400× highest desired concentration to wells in column 3, rows B through G. (six different compounds per block, one for each row, edge wells are not used due to evaporation). […] Next, add 250 μL of media containing 0.2% Triton X-100 to column 2, rows E, F, and G. ODs (optical density or absorbance) from this well will be used to subtract out for background absorbance of dead cells and vehicle. […]
Day 3—MTS Addition and OD Reading
A. After 24 hours of incubation with drug, remove plates from incubator and add 40 μl MTS/PMS to each well. […] Read ODs at 490 nm after a 5 second shaking cycle in a ninety-six well spectrophotometer. […]

bile flow = conditions: rats; cited from earlier work

## CCSCC[C@H](N)C(=O)O [ethionine]
[1]
  Nile Red binding (lipid accumulation): increased Nile Red binding

## CCCC(CCC)C(=O)O [valproic acid]
[1]
  Nile Red binding (lipid accumulation): increased Nile Red binding

## O=c1ccc2ccccc2o1 [Coumarin]
Primary rat hepatocytes
  pIC50: ~4.28

## estrogen
[1]
  Nile Red binding (lipid accumulation): increased Nile Red binding

## C=C1[C@@H](C)[C@H]2[C@H](Cc3ccccc3)NC(=O)[C@]23OC(=O)/C=C/[C@H](O)CCC[C@@H](C)C/C=C/[C@H]3[C@@H]1O [cytochalasin B]
Bile flow
  effect on bile flow: prompt arrest of bile flow
